Biological target: T1, Na+-dependent bile acid transport system (Oryctolagus cuniculus, UniProt Q28727)
T1 construct: brush-border membrane vesicles from the ileum of rabbits; from tissue; host or cells: terminal ileum of male New Zealand rabbits, brush-border membrane vesicles
T1 sequence (Q28727 1-347): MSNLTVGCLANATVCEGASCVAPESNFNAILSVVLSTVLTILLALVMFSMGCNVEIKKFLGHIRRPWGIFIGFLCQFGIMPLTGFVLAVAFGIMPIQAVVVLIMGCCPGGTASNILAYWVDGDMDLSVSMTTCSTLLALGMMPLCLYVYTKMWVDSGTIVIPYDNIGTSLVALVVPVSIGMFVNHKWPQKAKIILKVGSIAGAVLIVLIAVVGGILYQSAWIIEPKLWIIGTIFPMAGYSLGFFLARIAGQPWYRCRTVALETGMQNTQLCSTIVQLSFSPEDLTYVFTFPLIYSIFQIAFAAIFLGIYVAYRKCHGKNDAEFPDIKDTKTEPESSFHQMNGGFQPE
Test: Inhibition of Na+-dependent [3H]taurocholate absorption into brush-border membrane vesicles of the ileum
Type: biochemical, rabbit
Protocol: The preparation of brush-border membrane vesicles from the intestinal cells of the small intestine was carried out using the so-called Mg^2+ precipitation method. Male New Zealand rabbits (2-2.5 kg body weight) were sacrificed by intravenous injection of 0.5 ml of T-61^R. The small intestine was removed and rinsed with ice-cold physiological saline solution. The terminal 3/10 of the small intestine (measured in the oral-rectal direction, i.e. the terminal ileum, which contains the active Na^+ -dependent bile acid transport system) were used for preparation of the brush-border membrane vesicles. The intestines were frozen at -80° C. under nitrogen in plastic bags. The frozen intestines were thawed in a water bath at 30° C. in order to prepare the membrane vesicles. The mucosa was scraped off and suspended in 60 ml of ice-cold 12 mM trys/HCl buffer (pH 7.1)/300 mM mannitol, 5 mM EGTA/10 mg/l of phenylmethylsulfonyl fluoride/1 mg/l of soybean trypsin inhibitor (32 U/mg)/0.5 mg/l of bovine lung trypsin inhibitor (193 U/mg)/5 mg/l of bacitracin. After diluting to 300 ml with ice-cold distilled water, the suspension was homogenized with ice-cooling for 3 minutes at 75% of maximum power using an Ultraturrax (18 rod, IKA Werk Staufen, Federal Republic of Germany). After addition of 3 ml of 1M MgCl2 solution (final concentration 10 mM), the homogenate was allowed to stand at 0° C. for exactly 1 minute. As a result of addition of Mg^2+, the cell membranes aggregate and precipitate with the exception of the brush-border membranes. After centrifugation at 3,000×g (5,000 rpm, SS-34 rotor) for 15 minutes, the precipitate is discarded and the supernatant which contains the brush-border membranes is centrifuged at 26,700×g (15,000 rpm, SS-34 rotor) for 30 minutes. The supernatant was discarded, and the precipitate was rehomogenized in 60 ml of 12 mM tris/HCl buffer (pH 7.1)/60 mM mannitol, 5 mM EGTA using a Potter Elvejhem homogenizer (Braun Melsungen, 900 rpm, 10 strokes). After addition of 0.1 ml of 1M MgCl2 solution and an incubation time of 15 minutes at 0° C., the mixture was again centrifuged at 3,000×g for 15 minutes. The supernatant was then again centrifuged at […] (15,000 rpm, SS-34 rotor) for 30 minutes. The precipitate was taken up in 30 ml of 10 mM tris/hepes buffer (pH 7.4)/300 mM mannitol and homogeneously resuspended by 20 strokes in a Potter Elvejhem homogenizer at 1,000 rpm. After centrifugation at 48,000×g (20,000 rpm, SS-34 rotor) for 30 minutes, the precipitate was taken up in 0.5 to 2 ml of tris/hepes buffer (pH 7.4)/280 mM mannitol (final concentration 20 mg/ml) and resuspended with the aid of a tuberculin syringe using a 27 gauge needle. The vesicles were either used immediately after preparation for transport investigations or stored at -196° C. in liquid nitrogen in 4 mg portions.
The absorption of substrates into brush-border membrane vesicles was determined by means of the so-called membrane filtration technique. 10 μl of the vesicle suspension (100 μg of protein) were pipetted on the wall of a polystyrene incubation tube (11×70 mm) as a drop which contained the incubation medium together with the corresponding ligands (90 μl ). […] The incubation medium was filtered through a polyvinylidene fluoride membrane filter (SYHV LO 4NS, 0.45 μm, 4 mm .phi., Millipore, Eschborn, Federal Republic of Germany). The transport measurement was begun by mixing the vesicles with the incubation medium. […] After the desired incubation time (customarily 1 min), the transport was stopped by addition of 1 ml of ice-cold stop solution (10 mM tris/hepes, (pH 7.4)/150 mM KCl). The resulting mixture was immediately filtered off with suction in a vacuum of 25 to 35 mbar through a membrane filter made of cellulose nitrate (ME 25, 0.45 μm, 25 mm diameter, Schleicher & Schuell, Dassell, Federal Republic of Germany). The filter was subsequently washed with 5 ml of ice-cold Stop solution.

[1] = Na+-dependent transport component, 50 μM taurocholate

Q: What does the source list for `C[C@H](CCC(=O)NCCS(=O)(=O)O)[C@H]1CC[C@H]2[C@@H]3[C@H](O)C[C@@H]4C[C@@H](OCCNC(=O)CCCc5ccc(N(CCCl)CCCl)cc5)CC[C@]4(C)[C@H]3C[C@H](O)[C@]12C` [Example 67]?
A: IC50: 47.5 µM; IC25 [1]: 24 µM; IC75 [1]: 270 µM

From patent publication US5462933A, “Modified bile acid conjugates, and their use as pharmaceuticals” (Hoechst Aktiengesellschaft, priority 1989, dated 1995)
